We go through 9 compounds from US5472951A, “Stabilizer for phospholipid vesicles” (Chiba Flour Milling Co., Ltd., priority 1992, dated 1995).

Format in all cases: physicochemical
Data set [1] is described as follows: dispersion stability: turbidity increase at 500 nm, standing at 25 °C for 3 days.
The nature of data set [2]: introduction ratio into the vesicle (phenol-sulfuric acid method). To be noted: 2 mol % modifier; for introduction ratio: 4 °C, 24 hours. On the procedure:
The ratio of introduction of the stabilizer into the vesicles is determined by treating the dispersion of the vesicles by gel filtration or ultracentrifuge to remove the superfluous stabilizer which has not been introduced into the vesicles, and quantitatively determining saccharide in respective fractions by a phenol-sulfuric acid method. The stabilizer of the present invention, when employed in an amount of from 2 to 10 mol %, is introduced into the vesicles in a ratio of 90% or more.
The stability of the vesicle dispersion which had been passed through the 0.05 μm filter was evaluated by measuring the change of absorbance (turbidity) at 500 nm with time on standing at room temperature by means of a UV-visible light spectrophotometer.
2.4 mg of DOMG prepared in the same manner as in Example 11 was dissolved in 1 ml of chloroform. This solution was mixed with a solution of 100 mg of DPPC in 5 ml of chloroform, thereby DOMG being 2 mol % of DPPC. The solution mixture was evaporated by means of an evaporator to form a thin film on the inside wall of an eggplant-shape flask. Then 10 ml of pure water was added thereto so as to obtain a concentration of 1.0% by weight of the vesicles. The mixture was stirred with glass beads by means of a vortex mixer, and subsequently treated by an extruder to prepare a dispersion of DOMG-modified DPPC vesicles having controlled diameters of particles. A portion of the resulting dispersion was diluted to a fivefold volume with pure water to prepare a dispersion having vesicle concentration of 0.2% by weight.
The two dispersions of the DOMG-modified vesicles having concentrations of 1.0% by weight and 0.2% by weight were left standing at 4° C. for 24 hours, and were ultracentrifuged (300000 G, 60 minutes). The free DOMG in the supernatant was determined by a phenol-sulfuric acid method, and therefrom the ratio of introduction DOMG to the vesicles was calculated.
As the results, the introduction ratios were 94.3%, and 77.0% respectively at the vesicle concentrations of 1.0% by weight and 0.2% by weight. The results are shown in Table 4 together with the results of Comparative Examples 6 and 7 described later in which an oligosaccharide derivative was employed.

Data set [3] can be described thus: turbidity increase, standing at 4 °C for 24 hours. To be noted: for turbidity increase rate relative to unmodified DPPC vesicle dispersion (100%): Table 3 / Example 11 series.
Data set [4] can be described thus: particle diameter of modified vesicles. The conditions noted are these: for average diameter: ultrasonicator (Example 5 series).
The nature of data set [5]: viscosity of vesicle dispersion on addition of calcium ion (rotating viscometer). To be noted: 5 mM calcium chloride. On the procedure:
The stability of the vesicles was evaluated as below. The precipitate of the vesicles prepared by centrifuge was dispersed again into saline by a vortex mixer. To this sample, calcium chloride (as calcium ion) was added to be 5 mM, and the viscosity of the dispersion was measured with a rotating viscometer (Vismetron VS-AK). The viscosity of 5 cp was not changed by addition of the calcium ion.
To this dispersion, calcium chloride (as calcium ion) was added to be 5 mM, and the viscosity of the dispersion was measured with a rotating viscometer (Vismetron VS-AK).
To this dispersion, calcium chloride (as calcium ion) was added to be 5 mM, and the viscosity of the dispersion was measured with a rotating viscometer (Vismetron VS-AK). The viscosity of 5 cp was not changed by addition of the calcium ion. On the contrary, the dispersion of the vesicles prepared from powdery lipid mixture not containing DACOA (DPPC:cholesterol:distearylphosphatidic acid=10:9:0.9 in molar ratio) aggregated immediately on addition of calcium ion because of negative charge on the surface of the vesicle, causing the viscosity rise up to 11 cp.
The stability of the dispersion of the DOLG-modified vesicles having adjusted particle diameters was evaluated by addition of 5 mM calcium chloride and observing the viscosity change. The viscosity was measured at 37° C. by a rotating viscometer. […] On the contrary, a dispersion of unmodified vesicles prepared from a powdery lipid mixture containing no DOLG (DPPC:cholesterol:stearic acid=7:7:2 in molar ratio) caused immediate aggregation of the vesicles on addition of calcium ion in the same manner as above because of the negative charge on the surface of the vesicle, and the viscosity increased up to 11 cp. Accordingly, the sufficient effect of the DOLG, a vesicle stabilizer of the present invention, was confirmed in inhibiting the aggregation of vesicles by calcium ion.

[6] abbreviates: Table 1 / Example 5 series, about 5 mol % modifier.
Where [7] appears, read: Table 2 / Example 8 series, 5 mol % modifier.
The mark [8] stands for this setting: DPPC vesicle, 5 mol % modifier (Example 8 series).
Setting [9] is: DPPC vesicle, about 5 mol % modifier.
The mark [10] stands for this setting: mixed lipid vesicles, 0.2 μm filter by extruder.

In the case of “Maltopentaose monopalmitate [MPMP, reference compound]”, the “turbidity increase rate relative to unmodified DPPC vesicle dispersion (100%)” value in data set [1] (setting [6]) is reported as 12.7%; in data set [1] (setting [7]), 11.2%; in data set [3] (5 mol % modifier, 24 hours), 13.5%. Further, the “introduction ratio in comparison with DOMG (in words)” value in data set [2] was “low in comparison with that of DOMG”. For the same compound, the introduction ratio is listed as 48.5% in data set [2] (vesicle concentration 0.2 wt %) and 75.8% in data set [2] (vesicle concentration 1.0 wt %). Besides, the average particle diameter in data set [4] (setting [8]) is 34±12 nm. In data set [4] (setting [9]), this compound came in with an average diameter of 34±12 nm.
As for “Maltopentaose dipalmitate [MPDP, reference compound]”, the “turbidity increase rate relative to unmodified DPPC vesicle dispersion (100%)” value in data set [1] (setting [6]) worked out at 65.4%. The compound further showed an average diameter in data set [4] (setting [9]) of 38±8 nm.
Regarding “Dioctadecylmaltopentaosyl glycerol [DOMPG]”, in data set [2], the “introduction ratio in comparison with DOMG (in words)” value is given as “low in comparison with that of DOMG”. In addition, the results for the introduction ratio in data set [2] (vesicle concentration 0.2 wt %) and in data set [2] (vesicle concentration 1.0 wt %) were 70.9% and 83.2%, respectively. Further, the “turbidity increase rate relative to unmodified DPPC vesicle dispersion (100%)” value in data set [3] (5 mol % modifier, 24 hours) is 12.1%.
For dioctadecyl lactosyl glycerol [DOLG], the “viscosity change on addition of calcium ion (in words)” value in data set [5] is given as “without viscosity increase”. Also, the “viscosity of the dispersion with calcium ion” value (shortened to “viscosity … with calcium ion”) in data set [5] (37 °C, shear rate 1.15 sec^-1) came out at 5 cp.
As to `CCCCCCCCCCCCCCCCCCOCC(COC1O[C@H](CO)[C@@H](O[C@H]2O[C@H](CO)[C@@H](O)[C@H](O)[C@H]2O)[C@H](O)[C@H]1O)OCCCCCCCCCCCCCCCCCC` (stereo partly drawn) [DOMG, 1,2-di-octadecyl-O-α(β)-maltosyl-glycerol], the introduction ratio in data set [2] (vesicle concentration 0.2 wt %) was 77.0%; in data set [2] (vesicle concentration 1.0 wt %), 94.3%. Moreover, in data set [3] (5-20 mol %), the “increase of the turbidity depending on amount of modifier (order)” value is given as 5 mol %>10 mol %>15 mol %>20. Moreover, the “vesicle stabilization effect (in words)” value in data set [3] (5 mol % modifier, 24 hours) was “not so effective”. The “turbidity increase rate relative to unmodified DPPC vesicle dispersion (100%)” value in data set [3] (5 mol % modifier, 24 hours) is 45.5%; in data set [3] (10 mol % modifier, 24 hours) it was 28.9%; in data set [3] (15 mol % modifier, 24 hours), 16.0%; in data set [3] (20 mol % modifier, 24 hours), 11.2%. For the same compound, in data set [4] (DPPC vesicle, about 5 mol % modifier, extruder 0.05 μm (Example 11)), the particle diameter is recorded as 35±15 nm.
As for `CCCCCCCC/C=C\CCCCCCCCNC(=O)[C@H](NC(C)=O)[C@@H](O)[C@H](O[C@@H]1O[C@H](CO)[C@@H](O)[C@H](O)[C@H]1NC(C)=O)[C@H](O)CO` [DACOA, di-N-acetylchitobiose oleylamine], in data set [5], the “viscosity change on addition of calcium ion (in words)” value is “not changed”. Further, in data set [5] (Vismetron VS-AK), the “viscosity … with calcium ion” value came out at 5 cp. The compound also showed an average particle diameter in data set [4] (setting [10]) of 200 nm.
Turning to `CCCCCCCCCCCCCCCCNC(=O)[C@H](O)[C@@H](O)[C@H](O[C@H]1O[C@H](CO)[C@@H](O)[C@H](O)[C@H]1O)[C@H](O)CO` [MCA, maltose cetyl amide], the “increase of the turbidity depending on amount of modifier (order)” value in data set [1] (5-25 mol %) was 5 mol %>10 mol %>15 mol %>20 mol % ≤25 mol %. In addition, the “turbidity increase rate relative to unmodified DPPC vesicle dispersion (100%)” value in data set [1] (setting [7]) amounted to 47.8%; in data set [1] (Table 2 / Example 8 series, 10 mol % modifier) it was 32.5%; in data set [1] (Table 2 / Example 8 series, 15 mol % modifier) it was 19.9%; in data set [1] (Table 2 / Example 8 series, 20 mol % modifier) it was 15.6%; in data set [1] (Table 2 / Example 8 series, 25 mol % modifier) it was 17.2%. Besides, the average particle diameter in data set [4] (setting [8]) was 41±19 nm; in data set [4] (DPPC vesicle, 10 mol % modifier (Example 8 series)), 35±13 nm; in data set [4] (DPPC vesicle, 20 mol % modifier (Example 8 series)), 36±10 nm. In data set [4] (DPPC vesicle, 15 mol % (MCA also 25 mol %) modifier), the “average particle diameter (in words)” value is “Nearly the same diameters”.
With `CCCCCCCCCCCCCCCCNC(=O)[C@H](O)[C@@H](O)[C@H](O[C@H]1O[C@H](CO)[C@@H](O[C@H]2O[C@H](CO)[C@@H](O[C@H]3O[C@H](CO)[C@@H](O[C@H]4O[C@H](CO)[C@@H](O)[C@H](O)[C@H]4O)[C@H](O)[C@H]3O)[C@H](O)[C@H]2O)[C@H](O)[C@H]1O)[C@H](O)CO` [MPCA, maltopentaose cetyl amide], the “turbidity increase rate relative to unmodified DPPC vesicle dispersion (100%)” value turned out to be 6.3% in data set [1] (setting [6]); 12.7% in data set [1] (setting [7]); 10.3% in data set [1] (Table 2 / Example 8 series, 5 mol % modifier, listed as MCPA). The “turbidity rise / aggregation inhibiting effect (in words)” value in data set [1] (about 5 mol % modifier) was “little rise in turbidity”. Moreover, in data set [4] (setting [8]), the average particle diameter was 32±9 nm. The average diameter in data set [4] (setting [9]) was 32±7 nm.
For `CCCCCCCCCCCCCCCCCCNC(=O)[C@H](O)[C@@H](O)[C@H](O)[C@H](O)CO[C@H]1O[C@H](CO[C@H]2O[C@H](CO[C@H]3O[C@H](CO[C@H]4O[C@H](CO[C@H]5O[C@H](CO)[C@@H](O)[C@H](O)[C@H]5O)[C@@H](O)[C@H](O)[C@H]4O)[C@@H](O)[C@H](O)[C@H]3O)[C@@H](O)[C@H](O)[C@H]2O)[C@@H](O)[C@H](O)[C@H]1O` [IHSA, Isomaltohexose stearylamide], in data set [5], the “inhibition of aggregation of vesicles by calcium ion (in words)” value is on record as “inhibited nearly completely” and the “viscosity change on addition of calcium ion (in words)” value is listed as “not changed at all”. Moreover, the “viscosity … with calcium ion” value in data set [5] (Vismetron VS-AK) was 5 cp. In addition, the average particle diameter in data set [4] (setting [10]) is listed as 200 nm.
